From the supplement of paper PMC10307832

Experiments:
Experiment in all cases: relative viability (nuclei count vs DMSO), 5 days (fraction); higher = more cells survive
Obatoclax + Pemetrexed = compound: COC1=CC(c2cc3ccccc3[nH]2)=N/C1=C\c1[nH]c(C)cc1C [Obatoclax] + Nc1nc2[nH]cc(CCc3ccc(C(=O)N[C@@H](CCC(=O)O)C(=O)O)cc3)c2c(=O)[nH]1 [Pemetrexed] (partner 0.2 µM)
Procedure, shortened: (§1)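 Lung cancer cell lines were pin-tool dosed in 1536-well plates on the day after seeding, with either a lone drug or a fixed anchor-drug dose plus five library-drug doses (not always all listed) in √10 steps. Nuclei were counted on 4× images after 5 days. Relative viability is the ratio of treated-well to vehicle-well nuclei counts, with each value a median of duplicate plates.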

Obatoclax + Palbociclib = compound: COC1=CC(c2cc3ccccc3[nH]2)=N/C1=C\c1[nH]c(C)cc1C [Obatoclax] + CC(=O)c1c(C)c2cnc(Nc3ccc(N4CCNCC4)cn3)nc2n(C2CCCC2)c1=O [Palbociclib] (partner 0.5 µM)
Procedure, shortened: as §1

Bortezomib + Phenformin = compound: CC(C)C[C@H](NC(=O)[C@H](Cc1ccccc1)NC(=O)c1cnccn1)B(O)O [Bortezomib] + N=C(N)NC(=N)NCCc1ccccc1 [Phenformin] (partner 250 µM)
Procedure, shortened: as §1

Bortezomib + Navitoclax = compound: CC(C)C[C@H](NC(=O)[C@H](Cc1ccccc1)NC(=O)c1cnccn1)B(O)O [Bortezomib] + CC1(C)CCC(c2ccc(Cl)cc2)=C(CN2CCN(c3ccc(C(=O)NS(=O)(=O)c4ccc(N[C@H](CCN5CCOCC5)CSc5ccccc5)c(S(=O)(=O)C(F)(F)F)c4)cc3)CC2)C1 [Navitoclax] (partner 0.5 µM)
Procedure, shortened: as §1

Cell Line	relative viability (Obatoclax + Pemetrexed; first compound 0.01 µM)	relative viability (Obatoclax + Pemetrexed; first compound 0.03162 µM)	relative viability (Obatoclax + Pemetrexed; first compound 0.1 µM)	relative viability (Obatoclax + Pemetrexed; first compound 0.3162 µM)	relative viability (Obatoclax + Pemetrexed; first compound 1 µM)	relative viability (Obatoclax + Palbociclib; first compound 0.01 µM)	relative viability (Obatoclax + Palbociclib; first compound 0.03162 µM)	relative viability (Obatoclax + Palbociclib; first compound 0.1 µM)	relative viability (Obatoclax + Palbociclib; first compound 0.3162 µM)	relative viability (Obatoclax + Palbociclib; first compound 1 µM)	relative viability (Bortezomib + Phenformin; first compound 0.0002 µM)	relative viability (Bortezomib + Phenformin; first compound 0.000632 µM)	relative viability (Bortezomib + Phenformin; first compound 0.002 µM)	relative viability (Bortezomib + Phenformin; first compound 0.006325 µM)	relative viability (Bortezomib + Phenformin; first compound 0.02 µM)	relative viability (Bortezomib + Navitoclax; first compound 0.0002 µM)	relative viability (Bortezomib + Navitoclax; first compound 0.000632 µM)	relative viability (Bortezomib + Navitoclax; first compound 0.002 µM)	relative viability (Bortezomib + Navitoclax; first compound 0.006325 µM)	relative viability (Bortezomib + Navitoclax; first compound 0.02 µM)
NCI-H1975	0.298	0.297	0.3	0.309	0.208	0.557	0.55	0.285	0.542	0.177	0.405	0.35	0.115	0.0978	0.106	1.05	1.05	0.315	0.136	0.133
NCI-H2085	0.886	1	0.705	0.709	0.298	0.472	0.45	0.462	0.482	0.423	0.757	0.826	0.693	0.318	0.16	1.18	1.14	1.05	0.248	0.211
NCI-H3122	0.19	0.202	0.2	0.203	0.221	0.185	0.185	0.277	0.224	0.179	0.391	0.368	0.404	0.121	0.105	1.01	1.04	1.06	0.625	0.167
NCI-H1651	0.591	0.439	0.528	0.373	0.603	0.522	0.501	0.524	0.553	0.554	0.354	0.312	0.229	0.101	0.106	1.17	0.958	0.263	0.14	0.101
NCI-H441	0.231	0.217	0.27	0.244	0.269	0.231	0.214	0.261	0.167	0.155	0.969	0.732	0.514	0.166	0.189	0.4	0.612	0.31	0.17	0.143
NCI-H2126	0.661	0.62	0.703	0.704	0.649	0.34	0.34	0.376	0.356	0.337	0.528	0.534	0.538	0.34	0.256	0.857	0.844	0.827	0.848	0.327
RERF-LC-KJ	0.466	0.461	0.448	0.457	0.45	0.909	1.06	1.09	0.957	0.892	0.377	0.42	0.415	0.337	0.272	1.01	1.19	0.593	0.247	0.244
NCI-H1666	0.835	0.775	0.823	0.725	0.633	0.593	0.692	0.659	0.638	0.592	0.533	0.544	0.559	0.365	0.307	0.832	1.08	0.848	0.211	0.196
PC-14	0.129	0.147	0.125	0.149	0.109	0.453	0.489	0.411	0.0534	0.055	0.434	0.487	0.616	0.183	0.061	1.02	0.941	0.992	0.0667	0.0697
NCI-H1915	0.486	0.496	0.482	0.535	0.517	0.527	0.557	0.521	0.486	0.522	0.361	0.356	0.371	0.147	0.0571	0.676	0.764	0.799	0.0915	0.0811
NCI-H2170	0.257	0.243	0.266	0.276	0.283	0.372	0.4	0.393	0.368	0.43	0.43	0.419	0.462	0.326	0.208	0.425	0.548	0.6	0.169	0.172
HCC-78	0.858	0.898	0.777	0.887	0.897	0.438	0.45	0.506	0.479	0.457	0.699	0.641	0.676	0.712	0.364	0.766	0.794	0.467	0.16	0.178
PC-3 [JPC-3]	1.07	0.933	0.925	0.645	0.476	0.497	0.515	0.503	0.406	0.33	0.495	0.485	0.472	0.24	0.175	0.783	0.842	0.724	0.44	0.139
EKVX	0.397		0.358	0.372	0.436	0.438		0.393	0.388	0.386	0.238	0.237	0.238	0.239	0.139	0.95	1.03	0.978	0.44	0.0945
NCI-H460	0.0642	0.0576	0.0607	0.0693	0.0648	0.153	0.14	0.201	0.055	0.0295	0.347	0.526	0.554	0.0373	0.0212	1.08	1.15	1.34	0.0699	0.0164
NCI-H1793	0.91	0.924	0.727	0.838	0.878	0.286	0.284	0.323	0.33	0.384	0.366	0.242	0.368	0.344	0.169	0.418	0.463	0.599	0.409	0.149
